Experimental data: ChEMBL document CHEMBL1154453, “Synthesis and aldose reductase inhibitory activity of some new chromonyl-2,4-thiazolidinediones” (Eur J Med Chem, 2008)

Columns and labels:
[1] = biological target: Aldo-keto reductase family 1 member B1 (Rattus norvegicus) (UniProt P07943); experiment: (§1) Inhibition of aldose reductase in Albino rat kidney assessed as decrease in NADPH concentration by spectrophotometrically
[2] = biological target: Aldo-keto reductase family 1 member B1 (Rattus norvegicus, UniProt P07943); experiment: as §1

Row | Compound | inhibition [1] [%] | IC50 [2] [nM]
1 | CCOC(=O)CN1C(=O)S/C(=C/c2coc3ccc(C(C)C)cc3c2=O)C1=O | 9.46 | –
2 | Cc1ccc2occ(/C=C3/SC(=O)NC3=O)c(=O)c2c1 | 52.7 | 944
3 | O=C(O)CN1C(=O)S/C(=C/c2coc3ccccc3c2=O)C1=O | 49.4 | –
4 | CC(C)c1ccc2occ(/C=C3/SC(=O)NC3=O)c(=O)c2c1 | 50.8 | 955
5 | O=C(O)CN1C(=O)S/C(=C/c2coc3ccc([N+](=O)[O-])cc3c2=O)C1=O | 82.4 | 261
6 | CCOC(=O)CN1C(=O)S/C(=C/c2coc3ccccc3c2=O)C1=O | 8.18 | –
7 | O=C1NC(=O)/C(=C\c2coc3ccc([N+](=O)[O-])cc3c2=O)S1 | 46.7 | –
8 | O=C1NC(=O)/C(=C\c2coc3ccccc3c2=O)S1 | 42.4 | –
9 | CCOC(=O)CN1C(=O)S/C(=C/c2coc3ccc(C)cc3c2=O)C1=O | 0 | –
10 | Cc1ccc2occ(/C=C3/SC(=O)N(CC(=O)O)C3=O)c(=O)c2c1 | 61.2 | 805
11 | Cc1cc(C)c2occ(/C=C3/SC(=O)N(CC(=O)O)C3=O)c(=O)c2c1 | 68.6 | 678
12 | CC(C)c1ccc2occ(/C=C3/SC(=O)N(CC(=O)O)C3=O)c(=O)c2c1 | 77.3 | 522
13 | CCOC(=O)CN1C(=O)S/C(=C/c2coc3c(C)cc(C)cc3c2=O)C1=O | 0 | –
14 | Cc1cc(C)c2occ(/C=C3/SC(=O)NC3=O)c(=O)c2c1 | 49.7 | –
